Read-outs that look alike come from different tables or passages of the source.
Experiment: Plasma concentration versus time of Compound I and metabolite Compound III in patients dosed QD or BID with Form B of Compound II plus fulvestrant
Format: in vivo, human
Settings: human, plasma, oral; for concentration at 22 day: Day 22; for concentration at 24 h: Day 1, […]
Excerpt: Patients were enrolled into 1 of 2 parallel, independently operating, dose-escalation dosing cohorts with Form B of Compound II administered continuously either once daily (QD) or twice daily (BID) with food with fixed-dose fulvestrant (intramuscularly every 14 days for the first three injections and then every 28 days). Pre- or perimenopausal patients also received goserelin for the duration of study treatment. A […] agonist was started at least 28 days before the first dose of Form B, and those patients who were taking another LHRH agonist were switched to goserelin on Day 1. Patients were split into […] cohorts providing once a day (QD) dosing of 200 mg, 300 mg, 400 mg, 500 mg, or 650 mg of Form B, or twice a day (BID) dosing of 100 mg, 150 mg, or 200 mg of Form B. The second dose in BID cohorts was not administered in the evening until at least 12 hours after the initial morning dose of Form B. The dosing cohorts for Form B of Compound II are provided in Table 1.
Blood samples were collected at the following time points relative to the morning dose of Form B at Day 1 and at Day 29: pre-dose (0 hour) and 1, 2, 3, 4, 6, 8, 10, 12 (prior to the evening dose in the BID cohorts), and 24 (prior to the next day's morning dose) hours after dosing. A 5-minute time window was allowed for samples collected between the predose and 3 hours after Form B dosing. A 15-minute window was allowed for samples collected between 4 to 12 hours after Form B dosing. A 1-hour window was allowed for the sample collected 24 hours after Form B dosing. Blood samples for Compound I PK trough levels were collected pre-dose at Day 8, Day 15, and Day 22 prior to the morning administration of Compound I. Plasma concentrations of Compound I and its metabolite, Compound III, were measured using validated methods.
Analysis of plasma concentration versus time data for calculation of standard pharmacokinetic (PK) parameters following oral administration was conducted using Phoenix WinNonlin version 6.3 using actual blood sampling times.

In the case of `CC(C)N1CCN(c2ccc(Nc3ncc4cc5n(c4n3)C3(CCCCC3)CNC5=O)nc2)CC1` [Compound I, 2′-((5-(4-isopropylpiperazin-1-yl)pyridin-2-yl)amino)-7′,8′-dihydro-6′H-spiro[cyclohexane-1,9′-pyrazino[1′,2′:1,5]pyrrolo[2,3-d]pyrimidin]-6′-one], the concentration at 15 day (150 mg, Cohort 7, 150 mg BID of Form B, Day 15, read-out: Trough Compound I Concentration, Min) was 15.5 ng/mL, the concentration at 22 day (150 mg, Cohort 7, 150 mg BID of Form B, read-out: Trough Compound I Concentration, Max) was 30.5 ng/mL and the concentration at 22 day (150 mg, Cohort 7, 150 mg BID of Form B, read-out: Trough Compound I Concentration, Median) was 15.9 ng/mL. The concentration at 22 day (150 mg, Cohort 7, 150 mg BID of Form B, read-out: Trough Compound I Concentration, Min) was 15.5 ng/mL, the concentration at 0 h (150 mg, Cohort 7, 150 mg BID of Form B, Day 29, 0.0 h, read-out: Compound I Concentration, Max) was 51.1 ng/mL and the concentration at 0 h (150 mg, Cohort 7, 150 mg BID of Form B, Day 29, 0.0 h, read-out: Compound I Concentration, Median) was 18.5 ng/mL. The concentration at 1 h (150 mg, Cohort 7, 150 mg BID of Form B, Day 29, 1.0 h, read-out: Compound I Concentration, Median) was 28.7 ng/mL, the concentration at 2 h (150 mg, Cohort 7, 150 mg BID of Form B, Day 29, 2.0 h, read-out: Compound I Concentration, Median) was 34.3 ng/mL and the concentration at 3 h (150 mg, Cohort 7, 150 mg BID of Form B, Day 29, 3.0 h, read-out: Compound I Concentration, Median) was 35.6 ng/mL. The concentration at 4 h (150 mg, Cohort 7, 150 mg BID of Form B, Day 29, 4.0 h, read-out: Compound I Concentration, Median) was 36.9 ng/mL, the concentration at 6 h (150 mg, Cohort 7, 150 mg BID of Form B, Day 29, 6.0 h, read-out: Compound I Concentration, Median) was 26.5 ng/mL and the concentration at 8 h (150 mg, Cohort 7, 150 mg BID of Form B, Day 29, 8.0 h, read-out: Compound I Concentration, Median) was 26.9 ng/mL. The concentration at 10 h (150 mg, Cohort 7, 150 mg BID of Form B, Day 29, 10.0 h, read-out: Compound I Concentration, Median) was 23.8 ng/mL, the concentration at 12 h (150 mg, Cohort 7, 150 mg BID of Form B, Day 29, 12.0 h, read-out: Compound I Concentration, Median) was 17.3 ng/mL and the concentration at 0 h (200 mg, 200 mg BID of Form B, Day 1, 0.0 h, Mean, read-out: Compound I Concentration) was 0 ng/mL. The concentration at 0 h (200 mg, 200 mg BID of Form B, Day 1, 0.0 h, Median, read-out: Compound I Concentration) was 0 ng/mL, the concentration at 1 h (200 mg, 200 mg BID of Form B, Day 1, 1.0 h, Mean, read-out: Compound I Concentration) was 5.79 ng/mL and the concentration at 1 h (200 mg, 200 mg BID of Form B, Day 1, 1.0 h, Median, read-out: Compound I Concentration) was 6.13 ng/mL. The concentration at 2 h (200 mg, 200 mg BID of Form B, Day 1, 2.0 h, Mean, read-out: Compound I Concentration) was 9.42 ng/mL, the concentration at 2 h (200 mg, 200 mg BID of Form B, Day 1, 2.0 h, Median, read-out: Compound I Concentration) was 11.8 ng/mL and the concentration at 3 h (200 mg, 200 mg BID of Form B, Day 1, 3.0 h, Mean, read-out: Compound I Concentration) was 12.8 ng/mL. The concentration at 3 h (200 mg, 200 mg BID of Form B, Day 1, 3.0 h, Median, read-out: Compound I Concentration) was 14.8 ng/mL, the concentration at 4 h (200 mg, 200 mg BID of Form B, Day 1, 4.0 h, Mean, read-out: Compound I Concentration) was 15.5 ng/mL and the concentration at 4 h (200 mg, 200 mg BID of Form B, Day 1, 4.0 h, Median, read-out: Compound I Concentration) was 14.9 ng/mL. It also gave a concentration at 6 h (200 mg, 200 mg BID of Form B, Day 1, 6.0 h, Mean, read-out: Compound I Concentration) of 15.5 ng/mL, a concentration at 6 h (200 mg, 200 mg BID of Form B, Day 1, 6.0 h, Median, read-out: Compound I Concentration) of 17.1 ng/mL and a concentration at 8 h (200 mg, 200 mg BID of Form B, Day 1, 8.0 h, Mean, read-out: Compound I Concentration) of 8.94 ng/mL. The concentration at 8 h (200 mg, 200 mg BID of Form B, Day 1, 8.0 h, Median, read-out: Compound I Concentration) was 9.13 ng/mL, the concentration at 10 h (200 mg, 200 mg BID of Form B, Day 1, 10.0 h, Mean, read-out: Compound I Concentration) was 6.61 ng/mL and the concentration at 10 h (200 mg, 200 mg BID of Form B, Day 1, 10.0 h, Median, read-out: Compound I Concentration) was 6.33 ng/mL. For the same compound, the concentration at 12 h (200 mg, 200 mg BID of Form B, Day 1, 12.0 h, Mean, read-out: Compound I Concentration) was 5.64 ng/mL, the concentration at 12 h (200 mg, 200 mg BID of Form B, Day 1, 12.0 h, Median, read-out: Compound I Concentration) was 4.89 ng/mL and the concentration at 0 h (200 mg, 200 mg QD of Form B, Day 1, 0.0 h, Mean, read-out: Compound I Concentration) was 0 ng/mL. For the same compound, the concentration at 0 h (200 mg, 200 mg QD of Form B, Day 1, 0.0 h, Median, read-out: Compound I Concentration) was 0 ng/mL, the concentration at 1 h (200 mg, 200 mg QD of Form B, Day 1, 1.0 h, Mean, read-out: Compound I Concentration) was 8.42 ng/mL and the concentration at 1 h (200 mg, 200 mg QD of Form B, Day 1, 1.0 h, Median, read-out: Compound I Concentration) was 3.65 ng/mL. It also gave a concentration at 2 h (200 mg, 200 mg QD of Form B, Day 1, 2.0 h, Mean, read-out: Compound I Concentration) of 13.6 ng/mL, a concentration at 2 h (200 mg, 200 mg QD of Form B, Day 1, 2.0 h, Median, read-out: Compound I Concentration) of 12.3 ng/mL and a concentration at 3 h (200 mg, 200 mg QD of Form B, Day 1, 3.0 h, Mean, read-out: Compound I Concentration) of 20.2 ng/mL. For the same compound, the concentration at 3 h (200 mg, 200 mg QD of Form B, Day 1, 3.0 h, Median, read-out: Compound I Concentration) was 18.1 ng/mL, the concentration at 4 h (200 mg, 200 mg QD of Form B, Day 1, 4.0 h, Mean, read-out: Compound I Concentration) was 25 ng/mL and the concentration at 4 h (200 mg, 200 mg QD of Form B, Day 1, 4.0 h, Median, read-out: Compound I Concentration) was 27 ng/mL. The concentration at 6 h (200 mg, 200 mg QD of Form B, Day 1, 6.0 h, Mean, read-out: Compound I Concentration) was 16.8 ng/mL, the concentration at 6 h (200 mg, 200 mg QD of Form B, Day 1, 6.0 h, Median, read-out: Compound I Concentration) was 17.7 ng/mL and the concentration at 8 h (200 mg, 200 mg QD of Form B, Day 1, 8.0 h, Mean, read-out: Compound I Concentration) was 11.6 ng/mL. The concentration at 8 h (200 mg, 200 mg QD of Form B, Day 1, 8.0 h, Median, read-out: Compound I Concentration) was 12.2 ng/mL, the concentration at 10 h (200 mg, 200 mg QD of Form B, Day 1, 10.0 h, Mean, read-out: Compound I Concentration) was 8.28 ng/mL and the concentration at 10 h (200 mg, 200 mg QD of Form B, Day 1, 10.0 h, Median, read-out: Compound I Concentration) was 9.13 ng/mL. The concentration at 12 h (200 mg, 200 mg QD of Form B, Day 1, 12.0 h, Mean, read-out: Compound I Concentration) was 6.29 ng/mL, the concentration at 12 h (200 mg, 200 mg QD of Form B, Day 1, 12.0 h, Median, read-out: Compound I Concentration) was 6.43 ng/mL and the concentration at 24 h (200 mg, 200 mg QD of Form B, Mean, read-out: Compound I Concentration) was 3.61 ng/mL. The concentration at 24 h (200 mg, 200 mg QD of Form B, Median, read-out: Compound I Concentration) was 3.24 ng/mL, the concentration at 0 h (200 mg, 200 mg QD of Form B, Day 29, 0.0 h, Mean, read-out: Compound I Concentration) was 4.05 ng/mL and the concentration at 0 h (200 mg, 200 mg QD of Form B, Day 29, 0.0 h, Median, read-out: Compound I Concentration) was 4.1 ng/mL. It also gave a concentration at 1 h (200 mg, 200 mg QD of Form B, Day 29, 1.0 h, Mean, read-out: Compound I Concentration) of 5.12 ng/mL, a concentration at 1 h (200 mg, 200 mg QD of Form B, Day 29, 1.0 h, Median, read-out: Compound I Concentration) of 5.35 ng/mL and a concentration at 2 h (200 mg, 200 mg QD of Form B, Day 29, 2.0 h, Mean, read-out: Compound I Concentration) of 6.92 ng/mL. It also gave a concentration at 2 h (200 mg, 200 mg QD of Form B, Day 29, 2.0 h, Median, read-out: Compound I Concentration) of 7.27 ng/mL and a concentration at 3 h (200 mg, 200 mg QD of Form B, Day 29, 3.0 h, Mean, read-out: Compound I Concentration) of 12.5 ng/mL.
